Measured values reported in PMC12040169 (PLOS Biology, 2025).

Assay: in vitro
Settings: human, hela cells, % viability

Structure (SMILES)	viability at 28.5 h, 10 µM [%]
O=C(O)C(c1c[nH]c2ccccc12)N1CCOCC1 (stereo not shown) [CBK286739]	83.8
O=C(O)C1C2C=CC(C2)C1C(=O)N1CCN(C(c2ccccc2)c2ccccc2)CC1 (stereo not shown) [CBK262659]	95.2
CCCc1ccc(S(=O)(=O)Nc2c(C(=O)N(CC)CC)[nH]c3ccccc23)cc1 [CBK050111]	87.1
CN(Cc1cn(-c2ccccc2)nc1-c1ccccc1)C(=O)CCc1n[nH]c(=S)[nH]c1=O [CBK295630]	102
O=C(O)CCC(=O)NNc1ccccc1[N+](=O)[O-] [CBK261546]	95.7
COc1ccc(N2CCN(CC(=O)N3c4ccccc4Sc4ccccc43)CC2)cc1 [CBK269398]	89.1
O[C@H]1[C@H](NCc2ccco2)[C@H]2CO[C@H](O2)[C@@H]1N1CCCCC1 [CBK288825]	106
Cn1c(=O)c(-c2ccccc2)nc2ccccc21 [CBK016192]	143
Nc1nc(OCCN2CCCC2=O)cnc1-c1cc(Cl)cc(Cl)c1 [CBK145199]	89.3
CCN(CC)C(=O)C1CCCN(C(=O)Nc2ccc(Cl)cc2)C1 (stereo not shown) [CBK156136]	90.1
CC1(C)CC(=O)c2sc(NC(=O)Nc3ccccc3)nc2C1 [CBK287319]	104
CC#CC(=O)N1CCCC(Cc2ccc(F)cc2F)(C(=O)OCC)C1 (stereo not shown) [CBK307051]	111
OCCN(Cc1cccnc1)Cc1cccn1-c1ccc(F)cc1 [CBK283023]	95.9
O=C(CCCOc1ccccc1)Nc1cccc(N2CCNCC2)c1 [CBK028290T]	95.4
O=C(O)C1CC=CCC1C(=O)NCc1ccncc1 (stereo not shown) [CBK265481]	89.2
CC(=O)N1CCc2cc(C(=O)N[C@@H](Cc3ccccc3)C(=O)O)ccc21 [CBK298303]	102
COCC(=O)N1c2ccccc2CC[C@@H]1C(=O)OC [CBK285472]	103
Cc1ccc(-c2nnc(N3CCN(C(=O)CSc4nc[nH]n4)CC3)c3ccccc23)cc1 [CBK266652]	107
COc1ccc(Cn2ncnc2CC2CCNCC2)cc1 [CBK307071]	83.4
Cc1ccnc(NCn2nnc3ccccc32)c1 [CBK261116]	110
O=C1NCCNC(=O)C2(C/C=C/COc3ccccc31)CCN(C(=O)CCN1CCCCC1)CC2 [CBK292026]	110
O=C(c1ccco1)N1CCC(c2nnc3n2CCCCC3)CC1 [CBK284607]	94.3

Structure (SMILES)	viability at 28.5 h, 10 µM [%]
O=C(NCC(F)F)c1cn2cc(-c3cccs3)n(CC3CC3)c(=O)c2n1 [CBK307347]	105
O=C(c1ccc2nc[nH]c2c1)N1CCC2(CCN(Cc3ccccc3)C2)C1 (stereo not shown) [CBK136862]	94.1
COc1ccccc1NC(=O)/C(=C\c1cccnc1)NC(=O)c1ccccc1 [CBK261649]	89.6
Cc1cc(NC(=O)CCCc2ccccc2)nc2c1c(=O)oc1ccccc12 [CBK291204]	109
COc1ccccc1CN1CC[C@H]2NC(=O)CNC(=O)C3(C/C=C/C[C@H]2C1)CCN(C(C)=O)CC3 [CBK292107]	111
Cc1ccc(S(=O)(=O)Nc2ccc(C3(c4ccc(NS(=O)(=O)c5ccc(C)cc5)cc4)c4ccccc4C(=O)c4ccccc43)cc2)cc1 [CBK261155]	111
CC1=NNC(=O)C1Cc1ccc(F)cc1 (stereo not shown) [CBK067755]	97.4
Cc1ccc(NC(=O)CCN2C(=O)c3cccc([N+](=O)[O-])c3C2=O)c(Br)c1 [CBK263172]	98
O=C(c1cnc2ccccc2c1)N1CCC(F)CC1 [CBK200273]	102
OC(CN1CCC(Oc2ccccc2F)CC1)c1cccs1 (stereo not shown) [CBK281433]	95.2
CCCCNc1nccnc1-c1ccccc1 [CBK088477]	90.1
Cc1cc(NS(=O)(=O)c2cnn(-c3ccccc3)c2C)n(C)n1 [CBK067252]	107
COc1ccc2nc(-c3cccc(NC(=O)c4ccc(F)cc4)c3)cn2n1 [CBK287826]	104
Cc1nc2ccc(NC(=O)N3CCC(c4ccccc4)C3)cc2s1 (stereo not shown) [CBK266512]	98.8
OCC1CCCN1c1cc(Cl)nc2ccnn12 (stereo not shown) [CBK037011]	95.7
CCC(C)(C)C1CCc2c(sc(NC(=O)CN3CCOCC3)c2C#N)C1 (stereo not shown) [CBK270048]	89.4
O=S(=O)(CC(F)(F)F)Nc1ccc(N2CCNCC2)c2ccccc12 [CBK059354C]	90.6
CCn1ncc(CN[C@@H]2CCC(=O)N[C@H]2c2cc(F)cc(F)c2)c1C [CBK282914]	98.3
NC(=O)CSc1nnc(NC(=O)c2ccc(Cl)cc2Cl)s1 [CBK287627]	86.4
O=C(Nc1cccnc1)c1ncoc1-c1ccc(F)cc1 [CBK104357]	106
O=C(O)c1ccccc1NS(=O)(=O)c1cccc2cccnc12 [CBK042358]	56.7
CCN(CC)C(=O)C1CCCN(C(=O)NCCc2ccc(OC)c(OC)c2)C1 (stereo not shown) [CBK156134]	97.7

Structure (SMILES)	viability at 28.5 h, 10 µM [%]
CCCC/C=C/c1cncc(NC2CCC(N)CC2)n1 (stereo not shown) [CBK037827]	97.2
COc1ccc(-c2ccc3ccc(NC(=O)C(C)C)nc3n2)cc1C [CBK073665]	92.3
COc1ccc([N+](=O)[O-])cc1NC(=O)c1nc(C)c(C)nc1C(=O)O [CBK103387]	82.6
COc1ccc(CCNS(=O)(=O)c2ccc(C3CNC(=O)C3)cc2)cc1OC (stereo not shown) [CBK268352]	112
CC(C)Oc1cc(Br)cc(C(=O)N2CCC(C(=O)O)C2)c1 (stereo not shown) [CBK304268C]	92.6
O=C1NC2(CCCCCC2)C(=O)N1Cc1coc(-c2cccs2)n1 [CBK305858]	94.2
COc1cc(CNn2cnnc2S)ccc1OCC(N)=O [CBK265877]	90
Cc1c(CN(C)CC(=O)Nc2ccc(Br)cc2Cl)cnn1C [CBK304214]	86
Cc1cc(=O)oc2cc(Sc3ccc([N+](=O)[O-])cc3)ccc12 [CBK002954]	95.7
Cc1cc(CN(C)Cc2c(C)nc3c(C)cccn23)n[nH]1 [CBK281716]	99.1
CC(C)(c1ccccc1)c1ccc(OCc2ccc(S(=O)(=O)N3CCOCC3)cc2)cc1 [CBK267407]	96.8
O=C(CC1Sc2ccccc2NC1=O)Nc1ccccc1[N+](=O)[O-] (stereo not shown) [CBK264014]	94.8
COc1ccc(F)c(CN(CC2CCNCC2)C(=O)Nc2c(F)cccc2F)c1 [CBK049804]	110
O=C(O)c1ccccc1NS(=O)(=O)/C=C/c1ccccc1 [CBK042363]	102
CC(C)(O)C(=O)NCc1nc2c(s1)CC(c1ccccc1)CC2 (stereo not shown) [CBK304165]	77.3
Nc1ccc(CCNC(=O)c2cnc(-c3ccc(Cl)cc3)c(-c3ccco3)c2)cc1 [CBK036686]	99.7
CC(C)Oc1ccc(C2CC(=O)N(c3cccc(C(=O)O)c3)C2=O)cc1 (stereo not shown) [CBK291181]	89.8
Cc1nc(-c2ccc(N3CC(C(N)=O)CCC3C)nc2)[nH]c(=O)c1C (stereo not shown) [CBK306463]	83.9
CCOC(=O)c1cnc(SCc2nc(N)nc(Nc3ccc(F)cc3)n2)nc1N [CBK098477]	82.3
OCCc1ccc(Nc2cc(-c3ccsc3)ncn2)cc1 [CBK090769]	103
CC1(c2ccccc2)CC(C)(C)N(C(=O)C2CCCO2)c2ccccc21 (stereo not shown) [CBK059175]	97.5
COC(=O)c1c(N=C(S)NN2CCN(C)CC2)sc2c1CCC(C)C2 (stereo not shown) [CBK267125]	83.9

Structure (SMILES)	viability at 28.5 h, 10 µM [%]
O=c1n(-c2ccc(OC(F)(F)F)cc2)ccn1S(=O)(=O)c1ccccc1 [CBK106655]	95.1
COc1cc(C2(O)CCN(Cc3ccccc3)C2)ccc1OCc1ccccc1 (stereo not shown) [CBK045620]	95.9
CCOC(=O)Cc1nc2cc([N+](=O)[O-])ccc2oc1=O [CBK015603]	98
O=C(CSc1nnc(C2CC2)[nH]1)Nc1ccc(SC(F)F)cc1 [CBK295302]	101
Cn1nc(C(=O)NCCSc2n[nH]c(=O)[nH]c2=O)c2ccccc2c1=O [CBK297501]	79.1
Cc1cc(C)n(CC(=O)N2CCOC(c3ccccc3Cl)C2)n1 (stereo not shown) [CBK304927]	91.9
O=C1c2ccccc2C(=O)N1CCOc1nccnc1-c1ccsc1 [CBK106760]	90.4
COc1cc(CNc2nccnc2-c2ccco2)cc(OC)c1OC [CBK037320]	89.9
Cc1ccc2c(C)nc(Nc3nc(CSc4nnc(C)s4)cc(=O)[nH]3)nc2c1 [CBK269027]	87.1
Cc1nc2c(c(=O)[nH]1)CCN(C(=O)c1cc(C3CC3)oc1C)C2 [CBK283753]	92.5
C(=N\c1nc2ccccc2n1CCN1CCOCC1)/c1ccc2c(c1)OCO2 [CBK262270]	109
O=C(O)CS(=O)(=O)c1ccccc1C(=O)O [CBK261083]	98.9
O=C(CCSc1ccc(Cl)cc1)NCCN1CCOCC1 [CBK269352]	98.2
Cc1sc2ncn(CC3(O)CCCNC3)c(=O)c2c1-c1ccc(F)cc1 (stereo not shown) [CBK307346]	96
CC(C)(C)OC(=O)N1CCN(c2cc(NCc3ccccc3)ncn2)CC1 [CBK000137]	94.7
CCN(CC)CCNC(=O)c1cccc(Nc2cncc(-c3ccc(O)cc3)n2)c1 [CBK122671]	96.9
COc1cc(CNC(=O)NC(=O)C2CCN(C(C)C)CC2)cc(OC)c1OC [CBK034800]	82.9
O=C(O)COCC(=O)N[C@H]1CCN2C(=O)c3ccc(Cl)cc3NC(=O)[C@H]12 [CBK289342]	90
COc1cc(CNc2nccnc2-c2cccnc2)cc(OC)c1 [CBK038061]	105
COCC1CCCN(Cc2ccc(Br)cc2)C1 (stereo not shown) [CBK304624]	108
O=C(O)CSCC(=O)N1CCN(c2ccc(F)cc2)CC1 [CBK057269]	98

Same assay, conditions: human, hela cells, % viability, bulk resorufin, single well

Structure (SMILES)	viability at 28.5 h, 10 µM [%]
O=C(Nc1cc([N+](=O)[O-])ccc1O)c1cccc(C(=O)Nc2cc([N+](=O)[O-])ccc2O)c1 [CBK261168]	102
